Source: US20050245399A1, “Pyrazole derivatives as herbicidal compositions containing them” (ISHIHARA SANGYO KAISHA, LTD., priority 2004, published 2005)

Legend:
Format in all cases: in vivo
[1] = tested on: green foxtail (Setaria viridis L.): SETVI; test: Test Example 1 pre-emergence herbicidal activity, SETVI; settings: visually observed 20th to 23rd day after application
Text: (§1) Upland field soil was put into a 1/170,000 ha pot, and seeds of various plants {1. barnyardgrass (Echinochloa crus-galli L.): ECHCG, 2. crabgrass (Digitaria sanguinalis L.): DIGSA, 3. green foxtail (Setaria viridis L.): SETVI, 4. redroot pigweed (Amaranthus retroflexus L.): AMARE, 5. prickly sida (Sida spinosa L.): SEDSP, 6. velvetleaf (Abutilon theophrasti): ABUTH, 7. common cocklebur (Xanthium strumarium L.): XANST, 8. rice (Oryza sativa L.): ORYSA, 9. wheat (Triticum aestivum L.): TRZAX, 10. corn (Zea mays L.): ZEAMX, 11. soybean (Glycine max Merr.): GLXMA} were sown. Then, one day after the sowing, a wettable powder or emulsifiable concentrate having the compound of the present invention formulated in accordance with a usual formulation method, was weighed so that the active ingredient would be a predetermined amount and diluted with water in an amount of 500 L/ha. The herbicide adjusted was applied by a small size sprayer for preemergence treatment. On the 20th to 23rd day after the application of the herbicide, the growth of the respective plants was visually observed, and the herbicidal effects were evaluated by growth controlling degrees (%) ranging from 0 (equivalent to the untreated control) to 100 (complete kill), whereby the results shown in Table 4, were obtained. Compound Nos. in Table 4 correspond to Compound Nos. in Table 1 and 2 given hereinbefore.

[2] = tested on: wheat (Triticum aestivum L.), TRZAX; test: Test Example 2 post-emergence (foliage treatment) herbicidal activity, TRZAX; settings: 63 g a.i./ha
Text: (§2) Upland field soil was put into a 1/170,000 ha pot, and seeds of various plants were sown. Then, when the plants reached predetermined leaf stages {1. barnyardgrass (Echinochloa crus-galli L.), ECHCG: 1.1-2.1 leaf stage, 2. crabgrass (Digitaria sanguinalis L.), DIGSA: 1.0-2.0 leaf stage, 3. green foxtail (Setaria viridis L.), SETVI: 1.0-2.2 leaf stage, 4. redroot pigweed (Amaranthus retroflexus L.), AMARE: 0.1-1.5 leaf stage, 5. prickly sida (Sida spinosa L.), SIDSP: 0.1-0.6 leaf stage, 6. velvetleaf (Abutilon theophrasti), ABUTH: 0.1-0.6 leaf stage, 7. common cocklebur (Xanthium strumarium L.), XANST: 0.1 leaf stage, 8. rice (Oryza sativa L.), ORYSA; 1.0-2 leaf stage, 9. wheat (Triticum aestivum L.), TRZAX: 2.3-3.5 leaf stage, 10. corn (Zea mays L.), ZEAMXN 2.1-2.6 leaf stage, 11. soybean (Glycine max Merr.), GLXMA: primary leaf stage}, a wettable powder or emulsifiable concentrate having the compound of the present invention formulated in accordance with a usual formulation method, was weighed so that the active ingredient would be a predetermined amount, and diluted with water in an amount of 500 L/ha. To the diluted solution, 0.1% (v/v) of an agricultural spreader was added. The herbicide adjusted was applied by a small size sprayer for foliage treatment. On the 20th to 23rd day after the application of the herbicide, the growth of the respective plants was visually observed, and the herbicidal effects were evaluated by growth controlling degrees (%) ranging from 0 (equivalent to the untreated control) to 100 (complete kill), whereby the results shown in Table 5, were obtained. Compound Nos. in Table 5 correspond to Compound Nos. in Table 1 and 2 given hereinbefore.

[3] = tested on: rice (Oryza sativa L.): ORYSA; test: Test Example 1 pre-emergence herbicidal activity, ORYSA; settings: visually observed 20th to 23rd day after application
Text: as §1

[4] = tested on: wheat (Triticum aestivum L.): TRZAX; test: Test Example 1 pre-emergence herbicidal activity, TRZAX; settings: visually observed 20th to 23rd day after application
Text: as §1

[5] = tested on: prickly sida (Sida spinosa L.): SEDSP; test: Test Example 1 pre-emergence herbicidal activity, SIDSP; settings: visually observed 20th to 23rd day after application
Text: as §1

[6] = tested on: barnyardgrass (Echinochloa crus-galli L.): ECHCG; test: Test Example 1 pre-emergence herbicidal activity, ECHCG; settings: visually observed 20th to 23rd day after application
Text: as §1

[7] = tested on: redroot pigweed (Amaranthus retroflexus L.): AMARE; test: Test Example 1 pre-emergence herbicidal activity, AMARE; settings: visually observed 20th to 23rd day after application
Text: as §1

[8] = tested on: velvetleaf (Abutilon theophrasti), ABUTH; test: Test Example 2 post-emergence (foliage treatment) herbicidal activity, ABUTH; settings: 63 g a.i./ha
Text: as §2

[9] = tested on: soybean (Glycine max Merr.): GLXMA; test: Test Example 1 pre-emergence herbicidal activity, GLXMA; settings: visually observed 20th to 23rd day after application
Text: as §1

[10] = tested on: crabgrass (Digitaria sanguinalis L.): DIGSA; test: Test Example 1 pre-emergence herbicidal activity, DIGSA; settings: visually observed 20th to 23rd day after application
Text: as §1

[11] = tested on: corn (Zea mays L.): ZEAMX; test: Test Example 1 pre-emergence herbicidal activity, ZEAMX; settings: visually observed 20th to 23rd day after application
Text: as §1

[12] = tested on: barnyardgrass (Echinochloa crus-galli L.), ECHCG; test: Test Example 2 post-emergence (foliage treatment) herbicidal activity, ECHCG; settings: 63 g a.i./ha
Text: as §2

[13] = tested on: rice (Oryza sativa L.), ORYSA; test: Test Example 2 post-emergence (foliage treatment) herbicidal activity, ORYSA; settings: 63 g a.i./ha
Text: as §2

[14] = tested on: soybean (Glycine max Merr.), GLXMA; test: Test Example 2 post-emergence (foliage treatment) herbicidal activity, GLXMA; settings: 63 g a.i./ha
Text: as §2

[15] = tested on: crabgrass (Digitaria sanguinalis L.), DIGSA; test: Test Example 2 post-emergence (foliage treatment) herbicidal activity, DIGSA; settings: 63 g a.i./ha
Text: as §2

[16] = tested on: redroot pigweed (Amaranthus retroflexus L.), AMARE; test: Test Example 2 post-emergence (foliage treatment) herbicidal activity, AMARE; settings: 63 g a.i./ha
Text: as §2

[17] = tested on: velvetleaf (Abutilon theophrasti): ABUTH; test: Test Example 1 pre-emergence herbicidal activity, ABUTH; settings: visually observed 20th to 23rd day after application
Text: as §1

[18] = tested on: corn (Zea mays L.), ZEAMX; test: Test Example 2 post-emergence (foliage treatment) herbicidal activity, ZEAMX; settings: 63 g a.i./ha
Text: as §2

[19] = tested on: green foxtail (Setaria viridis L.), SETVI; test: Test Example 2 post-emergence (foliage treatment) herbicidal activity, SETVI; settings: 63 g a.i./ha
Text: as §2

[20] = tested on: prickly sida (Sida spinosa L.), SIDSP; test: Test Example 2 post-emergence (foliage treatment) herbicidal activity, SIDSP; settings: 63 g a.i./ha
Text: as §2

Structure (SMILES)	Pre-emergence Herbicidal Activity SETVI (growth controlling degree) ([1]; Rate 63 g a.i./ha)	growth controlling degree, TRZAX [2]	Pre-emergence Herbicidal Activity ORYSA (growth controlling degree) ([3]; Rate 63 g a.i./ha)	Pre-emergence Herbicidal Activity TRZAX (growth controlling degree) ([4]; Rate 63 g a.i./ha)	Pre-emergence Herbicidal Activity SIDSP (growth controlling degree) ([5]; Rate 63 g a.i./ha)	Pre-emergence Herbicidal Activity ECHCG (growth controlling degree) ([6]; Rate 63 g a.i./ha)	Pre-emergence Herbicidal Activity AMARE (growth controlling degree) ([7]; Rate 63 g a.i./ha)	growth controlling degree, ABUTH [8]	Pre-emergence Herbicidal Activity GLXMA (growth controlling degree) ([9]; Rate 63 g a.i./ha)	Pre-emergence Herbicidal Activity DIGSP (growth controlling degree) ([10]; Rate 63 g a.i./ha)	Pre-emergence Herbicidal Activity ZEAMX (growth controlling degree) ([11]; Rate 63 g a.i./ha)	growth controlling degree, ECHCO [12]	growth controlling degree, ORYSA [13]	growth controlling degree, GLXMA [14]	growth controlling degree, DIGSP [15]	growth controlling degree, AMARE [16]	Pre-emergence Herbicidal Activity ABUTH (growth controlling degree) ([17]; Rate 63 g a.i./ha)	growth controlling degree, ZEAMX [18]	growth controlling degree, SETVI [19]	growth controlling degree, SIDSP [20]	also measured
COc1c(Cl)cc(F)c(-c2nn(C)c(OC(F)F)c2Cl)c1NC(=O)c1ccc(F)cc1 [Compound 1-263]	100%	30%	40%	30%	100%	90%	100%	100%	10%	98%	0%	98%	70%	50%	98%	100%	100%	60%	100%		
COc1c(Cl)cc(F)c(-c2nn(C)c(OC(F)F)c2Cl)c1NC(=O)C=Cc1cccc(F)c1 [Compound 1-257]	10%	50%	20%	0%	60%	30%	100%	100%	0%	10%	0%	60%	40%	40%	50%		10%	30%	70%	100%	
COc1c(Cl)cc(F)c(-c2nn(C)c(OC(F)F)c2Cl)c1N(C=O)CCOc1ccccc1 [Compound 1-43]		10%						100%				40%	30%	40%	20%	100%		10%	70%		Pre-emergence Herbicidal Activity SETVI (growth controlling degree) ([1]; Rate 125 g a.i./ha): 0%; Pre-emergence Herbicidal Activity ORYSA (growth controlling degree) ([3]; Rate 125 g a.i./ha): 10%; Pre-emergence Herbicidal Activity TRZAX (growth controlling degree) ([4]; Rate 125 g a.i./ha): 0%; Pre-emergence Herbicidal Activity SIDSP (growth controlling degree) ([5]; Rate 125 g a.i./ha): 0%; Pre-emergence Herbicidal Activity ECHCG (growth controlling degree) ([6]; Rate 125 g a.i./ha): 0%; Pre-emergence Herbicidal Activity GLXMA (growth controlling degree) ([9]; Rate 125 g a.i./ha): 0%; Pre-emergence Herbicidal Activity DIGSP (growth controlling degree) ([10]; Rate 125 g a.i./ha): 10%; Pre-emergence Herbicidal Activity ZEAMX (growth controlling degree) ([11]; Rate 125 g a.i./ha): 0%; Pre-emergence Herbicidal Activity ABUTH (growth controlling degree) ([17]; Rate 125 g a.i./ha): 0%
COc1c(Cl)cc(F)c(-c2nn(C)c(OC(F)F)c2Cl)c1NC(=O)C(C)c1ccccc1 (stereo not drawn) [Compound 1-41]		30%						100%				20%	30%	40%	30%			0%	40%	100%	Pre-emergence Herbicidal Activity SETVI (growth controlling degree) ([1]; Rate 10 g a.i./ha): 100%; Pre-emergence Herbicidal Activity ORYSA (growth controlling degree) ([3]; Rate 10 g a.i./ha): 0%; Pre-emergence Herbicidal Activity TRZAX (growth controlling degree) ([4]; Rate 10 g a.i./ha): 0%; Pre-emergence Herbicidal Activity SIDSP (growth controlling degree) ([5]; Rate 10 g a.i./ha): 40%; Pre-emergence Herbicidal Activity ECHCG (growth controlling degree) ([6]; Rate 10 g a.i./ha): 30%; Pre-emergence Herbicidal Activity AMARE (growth controlling degree) ([7]; Rate 10 g a.i./ha): 50%; Pre-emergence Herbicidal Activity GLXMA (growth controlling degree) ([9]; Rate 10 g a.i./ha): 0%; Pre-emergence Herbicidal Activity DIGSP (growth controlling degree) ([10]; Rate 10 g a.i./ha): 50%; Pre-emergence Herbicidal Activity ZEAMX (growth controlling degree) ([11]; Rate 10 g a.i./ha): 0%; Pre-emergence Herbicidal Activity ABUTH (growth controlling degree) ([17]; Rate 10 g a.i./ha): 0%
